Values after ≈ are worked out from the molar mass of the structure shown. Read-outs that look alike come from different tables or passages of the source.
Tests used:
M. avium My 330/88 = assay: microbe, parasite or virus in culture; type: cell-based, Mycobacterium avium; conditions: for MIC: Mycobacterium avium, 37 °C; for MIC values against M. avium: all MIC values (14 and 21 d)
AChE from electric eel = target: T1, AChE from electric eel (Electrophorus electricus, UniProt O42275); assay: AChE inhibition, modified Ellman's method; type: biochemical, Electrophorus electricus L.
T1 construct: Acetylcholinesterase was obtained from electric eel (Electrophorus electricus L.); from tissue; host or cells: electric eel (Electrophorus electricus L.)
T1 sequence (O42275 24-633): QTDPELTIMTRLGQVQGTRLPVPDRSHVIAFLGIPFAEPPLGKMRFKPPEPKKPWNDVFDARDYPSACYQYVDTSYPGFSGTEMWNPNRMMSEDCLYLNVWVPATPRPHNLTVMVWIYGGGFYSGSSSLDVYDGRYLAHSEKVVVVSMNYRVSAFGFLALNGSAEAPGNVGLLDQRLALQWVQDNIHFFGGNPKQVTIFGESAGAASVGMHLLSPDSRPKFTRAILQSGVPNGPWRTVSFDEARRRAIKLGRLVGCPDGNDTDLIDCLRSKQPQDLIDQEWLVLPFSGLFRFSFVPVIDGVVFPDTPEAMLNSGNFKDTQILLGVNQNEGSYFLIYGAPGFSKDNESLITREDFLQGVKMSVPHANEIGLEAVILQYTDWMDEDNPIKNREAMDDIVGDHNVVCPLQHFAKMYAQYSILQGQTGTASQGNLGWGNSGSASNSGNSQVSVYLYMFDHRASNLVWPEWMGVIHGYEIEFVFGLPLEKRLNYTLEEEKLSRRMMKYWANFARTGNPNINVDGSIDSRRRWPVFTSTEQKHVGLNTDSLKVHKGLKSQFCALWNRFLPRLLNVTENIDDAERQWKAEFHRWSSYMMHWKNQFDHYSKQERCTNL
Excerpt: (§1) The ability of the tested compounds to inhibit AChE from electric eel (Electrophorus electricus L.) and BChE from equine serum was screened in vitro using modified Ellman’s method for the evaluation of cholinesterase activity. […] […]. These two standards were chosen due to their different structures. […]. The choice of these drugs with different mechanism of action can provide relevant results. All tested compounds expressed a good inhibitory activity with IC50s in low micromolar values.
(§2) The IC50 values were determined using the spectrophotometric Ellman’s method, which is a simple, rapid and direct method to determine the SH and -S-S- group content in proteins. This method is widely used for cholinesterase activity evaluation and screening of the efficiency of cholinesterase inhibitors. Cholinesterase activity is measured indirectly by quantifying the concentration of 5-thio-2-nitrobenzoic acid (TNB) ion formed in the reaction between the thiol reagent 5,5'-dithiobis-2-nitrobenzoic acid (DTNB) and thiocholine, a product of substrate hydrolysis by cholinesterase (i.e., acetylthiocholine, ATCh). All the tested compounds were dissolved in dimethyl sulfoxide (concentration 0.01 M) and then diluted in demineralised water (concentration 0.001 M and 0.0001 M). The Ellman’s method is slightly modified according to Zdrazilova et al.. Acetylcholinesterase was obtained from electric eel (Electrophorus electricus L.) and butyrylcholinesterase from equine serum.

M. kansasii My 235/80 = assay: microbe, parasite or virus in culture; type: cell-based, Mycobacterium kansasii; conditions: for MIC: Mycobacterium kansasii, 37 °C; for MICs for M. kansasii 235/80: all time points
[1] = tested on: Mycobacterium tuberculosis My 331/88 (H37Rv); assay: microbe, parasite or virus in culture; type: cell-based
BChE from equine serum = target: T2, BChE from equine serum (Equus caballus, UniProt P81908); assay: BChE inhibition, modified Ellman's method; type: biochemical
T2 construct: butyrylcholinesterase from equine serum; from tissue; host or cells: equine serum
T2 sequence (P81908 whole entry): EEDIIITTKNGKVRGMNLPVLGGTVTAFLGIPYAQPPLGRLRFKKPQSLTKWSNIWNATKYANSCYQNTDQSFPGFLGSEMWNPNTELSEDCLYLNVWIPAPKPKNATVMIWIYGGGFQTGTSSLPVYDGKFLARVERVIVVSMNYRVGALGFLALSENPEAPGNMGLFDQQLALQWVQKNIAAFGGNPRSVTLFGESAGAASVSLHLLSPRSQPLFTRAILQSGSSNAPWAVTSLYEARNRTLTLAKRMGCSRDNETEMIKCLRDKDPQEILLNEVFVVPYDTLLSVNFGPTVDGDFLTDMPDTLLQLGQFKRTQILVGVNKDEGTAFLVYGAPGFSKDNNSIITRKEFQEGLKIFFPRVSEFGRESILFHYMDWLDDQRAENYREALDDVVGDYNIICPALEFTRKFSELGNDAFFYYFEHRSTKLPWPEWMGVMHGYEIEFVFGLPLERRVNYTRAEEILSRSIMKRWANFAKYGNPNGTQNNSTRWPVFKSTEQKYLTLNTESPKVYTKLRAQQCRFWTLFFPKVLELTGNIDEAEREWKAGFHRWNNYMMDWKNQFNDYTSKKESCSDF
Excerpt: as §1, §2

[2] = tested on: M. kansasii 6509/96 (clinically isolated); assay: microbe, parasite or virus in culture; type: cell-based; conditions: Mycobacterium kansasii, 37 °C
[3] = MY330/88, 336 h, 14 d, read-out: MIC M. avium 330/88 14 d
[4] = MY330/88, 504 h, 21 d, read-out: MIC M. avium 330/88 21 d
[5] = MY235/80, 168 h, 7 d, read-out: MIC M. kansasii 235/80 7 d
[6] = MY235/80, 336 h, 14 d, read-out: MIC M. kansasii 235/80 14 d
[7] = MY235/80, 504 h, 21 d, read-out: MIC M. kansasii 235/80 21 d
[8] = 336 h, 14 d, 37 °C, read-out: MIC Mtb 331/88 (H37Rv) 14 d
[9] = 504 h, 21 d, 37 °C, read-out: MIC Mtb 331/88 (H37Rv) 21 d
[10] = 168 h, 7 d, read-out: MIC M. kansasii 6509/96 7 d
[11] = 336 h, 14 d, read-out: MIC M. kansasii 6509/96 14 d
[12] = 504 h, 21 d, read-out: MIC M. kansasii 6509/96 21 d

Compound	MIC (M. avium My 330/88; [3]) [µM]	MIC (M. avium My 330/88; [4]) [µM]	IC50 (AChE from electric eel) [µM]	MIC (M. kansasii My 235/80; [5]) [µM]	MIC (M. kansasii My 235/80; [6]) [µM]	MIC (M. kansasii My 235/80; [7]) [µM]	MIC [1, 8] [µM]	MIC [1, 9] [µM]	IC50 (BChE from equine serum) [µM]	MIC [2, 10] [µM]	MIC [2, 11] [µM]	MIC [2, 12] [µM]	MIC values against M. avium (M. avium My 330/88) [µM]	MIC ([1]; read-out: MIC against Mtb) [µM]	MICs for M. kansasii 235/80 (M. kansasii My 235/80) [µM]
CCOP(=S)(OCC)Oc1ccc(Br)cc1C(=O)Nc1cccc(Cl)c1 [1a, O-{4-Bromo-2-[(3-chlorophenyl)carbamoyl]phenyl} O,O-diethyl phosphorothioate]	500 (≈ 239 µg/mL)	> 500	12.6 ± 0.05	125 (≈ 59.8 µg/mL)	500 (≈ 239 µg/mL)	500 (≈ 239 µg/mL)	8 (≈ 3.83 µg/mL)	16 (≈ 7.66 µg/mL)	13.9 ± 0.05	125 (≈ 59.8 µg/mL)	500 (≈ 239 µg/mL)	500 (≈ 239 µg/mL)	–	–	–
CCOP(=S)(OCC)Oc1cc(Cl)ccc1C(=O)Nc1cccc(Cl)c1 [1s, O-{5-Chloro-2-[(3-chlorophenyl)carbamoyl]phenyl} O,O-diethyl phosphorothioate]	125 (≈ 54.3 µg/mL)	125 (≈ 54.3 µg/mL)	9.79 ± 0.2	32 (≈ 13.9 µg/mL)	125 (≈ 54.3 µg/mL)	125 (≈ 54.3 µg/mL)	16 (≈ 6.95 µg/mL)	32 (≈ 13.9 µg/mL)	12.5 ± 0.1	32 (≈ 13.9 µg/mL)	62.5 (≈ 27.1 µg/mL)	125 (≈ 54.3 µg/mL)	≤ 250	–	–
CCOP(=S)(OCC)Oc1ccc(Cl)cc1C(=O)Nc1cccc(C(F)(F)F)c1 [1q, O-(4-Chloro-2-{[3-(trifluoromethyl)phenyl]carbamoyl}phenyl) O,O-diethyl phosphorothioate]	500 (≈ 234 µg/mL)	> 500	12.1 ± 0.2	125 (≈ 58.5 µg/mL)	500 (≈ 234 µg/mL)	> 500	8 (≈ 3.74 µg/mL)	8 (≈ 3.74 µg/mL)	19.9 ± 0.2	125 (≈ 58.5 µg/mL)	500 (≈ 234 µg/mL)	500 (≈ 234 µg/mL)	–	8 (≈ 3.74 µg/mL)	–
CCOP(=S)(OCC)Oc1ccc(Br)cc1C(=O)Nc1cccc(C(F)(F)F)c1 [1h, O-(4-Bromo-2-{[3-(trifluoromethyl)phenyl]carbamoyl}phenyl) O,O-diethyl phosphorothioate]	125 (≈ 64 µg/mL)	125 (≈ 64 µg/mL)	13 ± 0.02	32 (≈ 16.4 µg/mL)	62.5 (≈ 32 µg/mL)	125 (≈ 64 µg/mL)	8 (≈ 4.1 µg/mL)	8 (≈ 4.1 µg/mL)	20 ± 0.5	32 (≈ 16.4 µg/mL)	62.5 (≈ 32 µg/mL)	125 (≈ 64 µg/mL)	≤ 250	8 (≈ 4.1 µg/mL)	≤ 250
CCOP(=S)(OCC)Oc1ccc(Cl)cc1C(=O)Nc1ccc(F)cc1 [1p, O-{4-Chloro-2-[(4-fluorophenyl)carbamoyl]phenyl} O,O-diethyl phosphorothioate]	500 (≈ 209 µg/mL)	500 (≈ 209 µg/mL)	13.6 ± 1.1	250 (≈ 104 µg/mL)	500 (≈ 209 µg/mL)	> 500	16 (≈ 6.69 µg/mL)	16 (≈ 6.69 µg/mL)	14.9 ± 0.8	125 (≈ 52.2 µg/mL)	250 (≈ 104 µg/mL)	500 (≈ 209 µg/mL)	–	–	–
CCOP(=S)(OCC)Oc1cc(Cl)ccc1C(=O)Nc1ccc(F)cc1 [1y, O-{5-Chloro-2-[(4-fluorophenyl)carbamoyl]phenyl} O,O-diethyl phosphorothioate]	125 (≈ 52.2 µg/mL)	250 (≈ 104 µg/mL)	11.6 ± 0.3	62.5 (≈ 26.1 µg/mL)	250 (≈ 104 µg/mL)	500 (≈ 209 µg/mL)	32 (≈ 13.4 µg/mL)	32 (≈ 13.4 µg/mL)	8.67 ± 0.49	62.5 (≈ 26.1 µg/mL)	250 (≈ 104 µg/mL)	500 (≈ 209 µg/mL)	–	–	–
CCOP(=S)(OCC)Oc1cc(Cl)ccc1C(=O)Nc1ccc(Cl)cc1 [1t, O-{5-Chloro-2-[(4-chlorophenyl)carbamoyl]phenyl} O,O-diethyl phosphorothioate]	125 (≈ 54.3 µg/mL)	125 (≈ 54.3 µg/mL)	10.8 ± 0.3	32 (≈ 13.9 µg/mL)	32 (≈ 13.9 µg/mL)	32 (≈ 13.9 µg/mL)	32 (≈ 13.9 µg/mL)	32 (≈ 13.9 µg/mL)	13.8 ± 0.05	32 (≈ 13.9 µg/mL)	62.5 (≈ 27.1 µg/mL)	62.5 (≈ 27.1 µg/mL)	≤ 250	–	–
CCOP(=S)(OCC)Oc1ccc(Cl)cc1C(=O)Nc1cccc(Br)c1 [1m, O-{2-[(3-Bromophenyl)carbamoyl]-4-chlorophenyl} O,O-diethyl phosphorothioate]	500 (≈ 239 µg/mL)	500 (≈ 239 µg/mL)	14.1 ± 0.2	125 (≈ 59.8 µg/mL)	500 (≈ 239 µg/mL)	> 500	16 (≈ 7.66 µg/mL)	16 (≈ 7.66 µg/mL)	15.1 ± 1.3	125 (≈ 59.8 µg/mL)	500 (≈ 239 µg/mL)	500 (≈ 239 µg/mL)	–	–	–
CCOP(=S)(OCC)Oc1ccc(Br)cc1C(=O)Nc1ccc(Cl)cc1 [1b, O-{4-Bromo-2-[(4-chlorophenyl)carbamoyl]phenyl} O,O-diethyl phosphorothioate]	500 (≈ 239 µg/mL)	500 (≈ 239 µg/mL)	12.9 ± 0.1	125 (≈ 59.8 µg/mL)	500 (≈ 239 µg/mL)	500 (≈ 239 µg/mL)	16 (≈ 7.66 µg/mL)	16 (≈ 7.66 µg/mL)	13.5 ± 0.9	125 (≈ 59.8 µg/mL)	500 (≈ 239 µg/mL)	500 (≈ 239 µg/mL)	–	–	–
CCOP(=S)(OCC)Oc1ccc(Br)cc1C(=O)Nc1cccc(Br)c1 [1d]	125 (≈ 65.4 µg/mL)	125 (≈ 65.4 µg/mL)	11.3 ± 0.05	125 (≈ 65.4 µg/mL)	125 (≈ 65.4 µg/mL)	125 (≈ 65.4 µg/mL)	16 (≈ 8.37 µg/mL)	16 (≈ 8.37 µg/mL)	20 ± 0.2	125 (≈ 65.4 µg/mL)	125 (≈ 65.4 µg/mL)	125 (≈ 65.4 µg/mL)	≤ 250	–	≤ 250
CCOP(=S)(OCC)Oc1cc(Cl)ccc1C(=O)Nc1ccc(Br)cc1 [1w, O-{2-[(4-Bromophenyl)carbamoyl]-5-chlorophenyl} O,O-diethyl phosphorothioate]	250 (≈ 120 µg/mL)	250 (≈ 120 µg/mL)	10.12 ± 0.08	32 (≈ 15.3 µg/mL)	32 (≈ 15.3 µg/mL)	32 (≈ 15.3 µg/mL)	32 (≈ 15.3 µg/mL)	32 (≈ 15.3 µg/mL)	16.4 ± 0.2	32 (≈ 15.3 µg/mL)	62.5 (≈ 29.9 µg/mL)	62.5 (≈ 29.9 µg/mL)	–	–	–
